For 19 molecules, IC50 results are on record in patent US4668514A, “Penicillin derivatives” (Taiho Pharmaceutical Company Limited, priority 1983, dated 1987).

pIC50: −log10 of the molar value.

The assay concerns the target penicillinase (β-lactamase) derived from Bacillus sp. The assay is described as follows: β-lactamase inhibitory activity measured by microiodometry using penicillin G as substrate. Type of assay: biochemical. As to conditions: read-out: 50% Inhibitory Concentration. On the procedure: Test for β-lactamase inhibitory activity
The inhibitory activity against penicillinase (β-lactamase) derived from Bacillus sp. was measured by microiodometry Tanpakushitsu Kakusan Koso (Protein Nucleic Acid Enzyme), vol. 23, No. 5, pp 391 to 400 (1978) using penicillin G as a substrate.

In the case of `Cc1nnn(C[C@@]2(C)[C@H](C(=O)O)N3C(=O)C[C@H]3S2(=O)=O)c1C` [Compound 2, sodium 2β-(4,5-dimethyl-1,2,3-triazol-1-yl)methyl-2α-methylpenam-3α-carboxylate 1,1-dioxide], the pIC50 was 7.10.
For the molecule `CCCCc1nnn(C[C@@]2(C)[C@H](C(=O)O)N3C(=O)C[C@H]3S2(=O)=O)c1CCCC` [Compound 5, sodium 2β-(4,5-di-n-butyl-1,2,3-triazol-1-yl)methyl-2α-methylpenam-3α-carboxylate 1,1-dioxide], the pIC50 was 5.52.
As for `CCCCc1cn(C[C@@]2(C)[C@H](C(=O)O)N3C(=O)C[C@H]3S2(=O)=O)nn1` [Compound 8, sodium 2β-(4-n-butyl-1,2,3-triazol-1-yl)methyl-2α-methylpenam-3α-carboxylate 1,1-dioxide], the figure is 6.64; as for `CCCCc1cnnn1C[C@@]1(C)[C@H](C(=O)O)N2C(=O)C[C@H]2S1(=O)=O` [Compound 9, sodium 2β-(5-n-butyl-1,2,3-triazol-1-yl)methyl-2α-methylpenam-3α-carboxylate 1,1-dioxide], 6.19; as for `Cc1cnnn1C[C@@]1(C)[C@H](C(=O)O)N2C(=O)C[C@H]2S1(=O)=O` [Compound 11, sodium 2β-(5-methyl-1,2,3-triazol-1-yl)methyl-2α-methylpenam-3α-carboxylate 1,1-dioxide], 6.62.
The value for `C[C@]1(Cn2cc(-c3ccccc3)nn2)[C@H](C(=O)O)N2C(=O)C[C@H]2S1(=O)=O` [Compound 14, sodium 2β-(4-phenyl-1,2,3-triazol-1-yl)methyl-2α-methylpenam-3α-carboxylate 1,1-dioxide] was 7.40.
The value for `C[C@]1(Cn2nncc2-c2ccccc2)[C@H](C(=O)O)N2C(=O)C[C@H]2S1(=O)=O` [Compound 15, sodium 2β-(5-phenyl-1,2,3-triazol-1-yl)methyl-2α-methylpenam-3α-carboxylate 1,1-dioxide] was 6.55.
As for `C[C@]1(Cn2nnc(-c3ccccc3)c2-c2ccccc2)[C@H](C(=O)O)N2C(=O)C[C@H]2S1(=O)=O` [Compound 17, 2β-(4,5-diphenyl-1,2,3-triazol-1-yl)methyl-2α-methylpenam-3α-carboxylic acid 1,1-dioxide], the pIC50 is 6.57.
The value for `C[C@]1(Cn2cc(C(F)(F)F)nn2)[C@H](C(=O)O)N2C(=O)C[C@H]2S1(=O)=O` [Compound 19, sodium 2α-methylpenam-2β-(4-trifluoromethyl-1,2,3-triazol-1-yl)methyl-3α-carboxylate 1,1-dioxide] was 6.62.
`COCc1cnnn1C[C@@]1(C)[C@H](C(=O)O)N2C(=O)C[C@H]2S1(=O)=O` [Compound 22, sodium 2β-(5-methoxymethyl-1,2,3-triazol-1-yl)methyl-2α-methylpenam-3α-carboxylate 1,1-dioxide]: the pIC50 was 5.74.
Turning to `CCNC(=O)c1cn(C[C@@]2(C)[C@H](C(=O)O)N3C(=O)C[C@H]3S2(=O)=O)nn1` [Compound 29, sodium 2β-(4-ethylcarbamoyl-1,2,3-triazol-1-yl)methyl-2α-methylpenam-3α-carboxylate 1,1-dioxide], the pIC50 is 7.70.
The value for `C[C@]1(Cn2nnc(C(N)=O)c2C(N)=O)[C@H](C(=O)O)N2C(=O)C[C@H]2S1(=O)=O` [Compound 31, sodium 2β-(4,5-dicarbamoyl-1,2,3-triazol-1-yl)methyl-2α-methylpenam-3α-carboxylate 1,1-dioxide] was 6.89; that for `CC(=O)c1cn(C[C@@]2(C)[C@H](C(=O)OCc3ccc([N+](=O)[O-])cc3)N3C(=O)C[C@H]3S2(=O)=O)nn1` [Compound 32, p-nitrobenzyl 2β-(4-acetyl-1,2,3-triazol-1-yl)methyl-2α-methylpenam-3α-carboxylate 1,1-dioxide] was 6.92.
The value for `CCOC(=O)c1nnn(C[C@@]2(C)[C@H](C(=O)O)N3C(=O)C[C@H]3S2(=O)=O)c1-c1ccccc1` [Compound 44, sodium 2β-(4-ethoxycarbonyl-5-phenyl-1,2,3-triazol-1-yl)methyl-2α-methylpenam-3α-carboxylate 1,1-dioxide] was 6.40; that for `CCOC(=O)c1c(-c2ccccc2)nnn1C[C@@]1(C)[C@H](C(=O)O)N2C(=O)C[C@H]2S1(=O)=O` [Compound 45, sodium 2β-(5-ethoxycarbonyl-4-phenyl-1,2,3-triazol-1-yl)methyl-2α-methylpenam-3α-carboxylate 1,1-dioxide] was 7.00.
As for `CC(=O)OCc1nnn(C[C@@]2(C)[C@H](C(=O)O)N3C(=O)C[C@H]3S2(=O)=O)c1COC(C)=O` [Compound 47, sodium-2β-(4,5-diacetoxymethyl-1,2,3-triazol-1-yl)methyl-2α-methylpenam-3α-carboxylate 1,1-dioxide], the pIC50 was 5.60.
In the case of `C[C@]1(Cn2nnc(COCc3ccccc3)c2COCc2ccccc2)[C@H](C(=O)O)N2C(=O)C[C@H]2S1(=O)=O` [Compound 49, 2β-(4,5-dibenzyloxymethyl-1,2,3-triazol-1-yl)methyl-2α-methylpenam-3α-carboxylic acid 1,1-dioxide], the pIC50 is 5.82.
Consider `C[C@]1(Cn2nnc(CO)c2CO)[C@H](C(=O)O)N2C(=O)C[C@H]2S1(=O)=O` [Compound 50, sodium 2β-(4,5-dihydroxymethyl-1,2,3-triazol-1-yl)methyl-2α-methylpenam-3α-carboxylate 1,1-dioxide], for which the pIC50 was 5.70.
Consider `C[C@]1(Cn2cc(N)nn2)[C@H](C(=O)O)N2C(=O)C[C@H]2S1(=O)=O` [Compound 55, 2β-(4-amino-1,2,3-triazol-1-yl)methyl-2α-methylpenam-3α-carboxylic acid 1,1-dioxide], for which the pIC50 is 6.15.
